Here are results for four compounds from PMC11362529, “Exploring the neuroprotective potential of Nrf2-pathway activators against annonacin toxicity” (Scientific Reports, 2024).

Type in all cases: cell-based, human
For experiment [1], the system named is LUHMES cells. The experiment in a line: Protective effects against annonacin toxicity, calcein viability assay. Conditions: with 20 nM annonacin, glucose-reduced medium, 48 h; 40 μM Ki 696–2, 1 μM HPP-D, 15 μM ezetimibe, 4 μM licochalcone A; most protective or highest non-toxic concentration for the others. The procedure: The calcein AM green dye (Thermo Fisher Scientific) was diluted in DMSO to obtain a 1 mM stock solution. The stock solution was further diluted in HBSS (Hanks' balanced salt solution), immediately before incubation, to achieve a final working concentration of 1 μM in the well. The medium was removed, the cells were washed once with warm HBSS, and 200 µl of calcein working solution was added to each well. For background correction, 200 µl of calcein working solution was added to a well without cells (background control). After 30 min of incubation at 37 °C, the calcein solution was removed and the cells were washed once with HBSS. Cells were lysed in a 200 µl volume of 1% Triton™ X-100 in PBS (phosphate buffered saline) and the lysate transferred to a 96‐well black plate for the readout. The fluorescence signal was measured on a FLUOstar® Omega plate reader (BMG LabTech, Ortenberg, Germany) at λ Ex/Em = 485/530 nm and data was analyzed with the MARS data analysis software (BMG LabTech). For background correction, we subtracted the background control signal from the measured values of all experimental conditions. Data were expressed as percentage of viability relative to the control (DMSO-treated) condition.
For pharmacological treatments, we acquired several previously described Nrf2-pathway activators: ezetimibe (Cayman), licochalcone A (MedChem Express, New Jersey, NJ, USA), bardoxolone methyl, saracatinib and PP2 (AbMole BioScience Inc., Houston, TX, USA). The enantiomers Ki 696–1 and Ki 696–2, and the compound HPP-D were kindly provided by Orion Pharma (Espoo, Finland). All compounds were dissolved in DMSO and stored in small aliquots at -80 °C to avoid freeze–thaw cycles. Compound general toxicity was determined on PLO/FN double-coated 48-well microplates as follows: after 4 days of differentiation, LUHMES cells were incubated with the different Nrf2-pathway activators at concentrations ranging from 1 nM to 100 µM, for 96 h. The cell viability was assessed by calcein assay on day 8 of differentiation. Non-toxic concentrations of the Nrf2-pathway activators were selected and used in the pharmacological treatments, in combination with 20 nM of annonacin, in glucose-reduced differentiation medium, over a period of 48 h, similar to an in vitro model reported before. The protective effects of Nrf2-pathway activators against annonacin toxicity were determined in terms of cell viability with the calcein assay.

Experiment [2] has as its system LUHMES cells. The experiment in a line: Intracellular ATP levels (ViaLight plus kit). To be noted: for intracellular ATP levels: protective concentration of compound + 20 nM annonacin, 24 h. The procedure: (§1) Mitochondrial activity was estimated by the reduction of MTT (3-(4,5-dimethylthiazol-2-yl)-2,5-diphenyltetrazolium, Sigma-Aldrich). Briefly, LUHMES cells were seeded on PLO/FN-coated 48-well microplates, in triplicates. After a 24 h treatment with 20 nM of annonacin and the protective concentrations of Nrf2-pathway activators in glucose-reduced medium, cells were incubated with 0.5 mg/ml of MTT dissolved in PBS, at 37 °C for 30 min. After that, the medium was removed and the plate was frozen at -80 °C for 1 h, for cell lysing. Next, the plate was thawed and the MTT crystals were completely dissolved in 250 µl of DMSO with vigorous shaking. The absorbance was measured on a FLUOstar® Omega plate reader at λ = 590 nm, using λ = 630 nm absorbance as a background correction. The obtained results were analyzed with the MARS data analysis software (BMG LabTech). After background subtraction, the data were expressed as a percentage of MTT reduction relative to the control (DMSO-treated) condition. Determination of cellular ATP levels was done by using the ViaLight™ plus kit (Lonza, Basel, Switzerland), following the manufacturer’s instructions. Cells were seeded on PLO/FN-coated 48-well microplates and the pharmacological treatments were done similarly as to the assessment of the MTT reduction. On the next day, the medium was removed and cells were washed once with warm HBSS and rested in 210 µl HBSS. The plate was left to reach RT before adding 70 µl cell lysis reagent to each well, provided by the kit. After a 10 min incubation, 10 µl of each lysed cell extract was transferred to a 384-well white plate and combined with 10 µl of ATP monitoring reagent plus. The plate was incubated in the dark for 10 min at RT before the luminescence signal was measured on a FLUOstar® Omega plate reader. The obtained results were analyzed with the MARS data analysis software (BMG LabTech) and expressed as RLUs. For background correction, the RLUs detected for the background control (i.e., 10 µl of ATP monitoring reagent plus combined with 10 µl of cell lysis reagent) were subtracted from the measured RLUs values of all testing conditions.

The test system of experiment [3] is LUHMES cells. The experiment in a line: Mitochondrial superoxide (MitoSOX / calcein AM). Conditions: 48 h. The procedure:
As before, cells seeded on PLO/FN-coated 24-well microplates were treated for 48 h with 20 nM of annonacin and the selected concentrations of Nrf2-pathway activators, in glucose-reduced medium. After this period, the medium was removed, and the cells were washed once with warm HBSS before being simultaneously incubated with 0.5 µM of MitoSOX™ red (Thermo Fisher Scientific) and 1 µM of calcein AM for 30 min at 37 °C. Next, the cells were again washed with HBSS and fresh HBSS was added to maintain cell viability during live-image acquisition on a fluorescence microscope Leica-DFC9000GTC (Leica). The cells were kept under controlled environmental conditions, and similar image acquisition parameters were used for all images, as explained before. We acquired ten to fifteen images per condition, from different view fields across triplicates, with a 200 × magnification (20 × objective, 10 × intermediate magnification). Quantification of MitoSOX and calcein AM FI was performed using the ImageJ software. Briefly, TIFF exported images were submitted to background subtraction using the rolling ball method with a radius of 50 pixels. Channel-specific thresholds were applied to all images to define the ROI, and the FI were measured as integrated density and reported as arbitrary units (a. u.). The MitoSOX FI was normalized to cell viability estimated by calcein AM FI, to obtain a MitoSOX FI/calcein FI ratio. The average ratio of the different view fields per experimental condition was taken and reported as fold change relative to the control (DMSO-treated) condition.

In experiment [4] the test system is LUHMES cells. The experiment in a line: Mitochondrial activity by MTT reduction. Conditions: 24 h; for MTT reduction: protective concentration of compound + 20 nM annonacin. The procedure:
as §1, with “After a 10 min incubation, 10 µl of each lysed cell extract was transferred to a 384-well white plate and combined with 10 µl of ATP monitoring reagent plus.” left out

Where [5] appears, read: protective concentration of compound + 20 nM annonacin.

In the case of `Cn1c(Nc2nc3ccc(C(F)(F)F)cc3s2)nc2cc(C(=O)NCCOCCO)ccc21` [HPP-D], the “reduction of annonacin toxicity” value in the experiment on LUHMES cells [1] is recorded as 21%. Further, in the experiment on LUHMES cells [2], the “intracellular ATP levels” value is recorded as “intracellular ATP levels no longer statistically different from healthy control cells”. For the same compound, the MitoSOX/calcein ratio entry in the experiment with LUHMES cells [3] (setting [5]) is given as “to control levels”.

As for `CCCCCCCCCCCC[C@@H](O)[C@H]1CC[C@H]([C@H](O)CCCC[C@H](O)CCCCC[C@@H](O)CC2=CC(C)OC2=O)O1` (stereo partly drawn) [annonacin], in the experiment on LUHMES cells [4] (20 nM annonacin alone), the “decrease of reduced-MTT compared with healthy control cells” value was 20%. Also, the ATP production result in the experiment on LUHMES cells [2] (annonacin alone) was “impaired ATP production”. Further, in the experiment on LUHMES cells [3] (20 nM annonacin alone), the MitoSOX fluorescence intensity result was “no major changes in MitoSOX fluorescence intensity” and the MitoSOX/calcein ratio entry was “significantly increased”.

For `O=C1[C@H](CC[C@H](O)c2ccc(F)cc2)[C@@H](c2ccc(O)cc2)N1c1ccc(F)cc1` [ezetimibe], in the experiment with LUHMES cells [1], the “reduction of annonacin toxicity” value was 33%. The MTT reduction entry in the experiment on LUHMES cells [4] was “further decreased the amount of MTT reduction”. The “intracellular ATP levels” value in the experiment with LUHMES cells [2] is given as “lower intracellular ATP levels”. Moreover, the MitoSOX/calcein ratio entry with LUHMES cells [3] (setting [5]) is “to control levels”.

As to `C=CC(C)(C)c1cc(/C=C/C(=O)c2ccc(O)cc2)c(OC)cc1O` [licochalcone A], in the experiment with LUHMES cells [1], the “reduction of annonacin toxicity” value is 34.6%. The MTT reduction entry with LUHMES cells [4] was “further decreased the amount of MTT reduction”. The “intracellular ATP levels” value in the experiment on LUHMES cells [2] was “lower intracellular ATP levels”. In the experiment on LUHMES cells [3] (setting [5]), the MitoSOX/calcein ratio result is given as “to levels below control”.
